From patent US5723496A, “Method for prevention and treatment of harmful effects of intracellular acidosis” (priority 1995, dated 1998)
Where “and” joins values, the source holds several entries; their conditions need not be identical. Equal entries are not always repeated. Entries after “also recorded” stand apart in the source; their conditions may differ. Structures can show the parent of a compound that is named as a salt.

How the values were obtained:
gerbil brain = assay: intracellular pH of gerbil brain (31P NMR); type: in vivo; conditions: mean and standard deviation; p<0.05 (t-test) vs saline 7.17; sulfate
Method: Intracellular pH measurement of gerbil brain was performed non-invasively using ^31 P nuclear magnetic resonance (NMR) in vivo spectroscopy. AGE Omega CSI-7T (useful bore 120 mm, horizontal, 7T) was used.
Gerbils were divided into […] of 7 animals each. Control group received saline. Saline ischemia group received saline. GES group received GES. Gerbils were anesthetized with pentobarbital, 50 mg/kg. Gerbils were held in a padded holder which was placed in the probe chamber containing a one turn round surface coil (5 mm diameter) tunable to the resonance frequency of proton and ^31 P. To avoid signal contamination, the scalp and temporal muscle were retracted. The body temperature was kept at 37° C. using a non-magnetic heating pad. Field homogeneity was maximized by skimming on tissue water proton signals. ^31 P spectra were obtained using a one pulse sequence at 121.67 MHz with a spectral width of 10K and stored into 4K memory blocks (recycle time 2.7 sec). The broad resonance with short T2 on ^31 P spectra was removed by the convolution difference technique. Line broadening of 30 Hz was applied as noise filter.

CA1 neurons = assay: neuronal density in CA1 region, gerbil forebrain ischemia model; type: in vivo
Method: The gerbil forebrain ischemia model of Kirino (REFERENCE, please) was employed as follows.
Animals were divided into 4 groups. Two groups of 5 animals each served as control.
First control group was administered daily for fourteen days 0.25 ml of saline. No ischemia was induced.
Second control group was administered 0.25 ml of 625 mg/kg of GES daily for fourteen days. No ischemia was induced.
Third group of ten animals was control ischemia group. This group was administered with 0.25 ml of saline daily for 14 days. Then, the ischemia was induced.
Fourth group of 16 animals was administered 0.25 ml of 625 mg/kg of GES for 14 days, followed by induced ischemia.
Animals were anesthetized with 1% halothane, 70% nitrous oxide, and 29% oxygen. The subscalp and rectal temperature were monitored and kept constant at 37° C. using a controlled heating system starting 30 minutes prior to one hour after induction of ischemia. Ischemia in experimental groups (saline and GES ischemia groups) was induced by occlusion of the carotid arteries bilaterally for 5 minutes using small aneurysm clips. Animals in the two control groups (saline and GES controls) received sham surgery but no ischemia was induced.
Seven days after induced ischemia and recirculation, animals were perfused transcardially with 50 cc of normal saline followed by 500 cc of 5% paraformaldehyde in 0.1M phosphate buffer (pH=7.3), at 100 cm H2 O, under deep pentobarbital anesthesia. Brains were removed and fixed in the same buffered paraformaldehyde solution for 14 days. Sections (6 μm thick) containing the dorsal hippocampus at the level 1.4-1.7 mm posterior to the bregma were prepared on a cryostat from paraffin embedded brain. Sections were stained with hematoxylin and eosin and examined in a double blinded fashion. The number of viable neurons within the CA1 region was counted using an Olympus BH-2 microscope at ×400. The results represents the average of the counts.

mouse brain = mouse brain intracellular pH pre- and post-anoxia (Example 7, 31P NMR); type: in vivo, Adult Swiss mice; conditions: FIG. 12, sulfate
Method: (§1) Adult Swiss mice (BK-1 male 20 g) purchased from Bantin & Kingman, Fremont, Calif., were used. Each batch consisted of 15 mice. Within each batch, five mice were selected randomly to be in the GES, taurine, or control group. A taurine group was included to serve as additional control.
A GE Omega CSI-7T (clear bore 120 mm, horizontal, 7T) was used. Mice were anesthetized with pentobarbital, 50 mg/kg, intraperitoneally. Mice were held in a padded holder which was placed in the probe chamber containing a one turn round surface coil (5 mm diameter) tunable to the resonance frequency of proton and ^31 P. To avoid signal contamination, the scalp and temporal muscle were retracted. The animal body temperature was kept at 37° C. using a non-magnetic heating pad. Field homogeneity was maximized by skimming on tissue water proton signals. ^31 P spectra were obtained using a one pulse sequence at 121.67 MHz with a spectral width of 10K and stored into 4K memory blocks (recycle time 1.2 sec). Every 100 transients (2 minutes) were blocked. In order to obtain higher accuracy, preanoxia steady state pH was determined using block average files of three blocks (300 transients, 6 minutes). Anoxia was then introduced by infusion of 100% N2 into the chamber (14 L/min). The first blocks (100 transients, 2 minutes) immediately after N2 introduction were utilized for post anoxia pH measurement. […]

[1] = design: species or system Adult Swiss mice; conditions: mouse, in vivo
Method: as §1
Arterial blood gas sample was collected by puncture of the lower portion of the descending aorta under pentobarbital anesthesia. Analysis was performed on a Corning 168 Blood Gas Analyzer.

anaerobic glycolysis = assay: brain lactate after 2.5 min anoxia; type: in vivo, Adult Swiss mice
Method: as §1
Brain lactate levels were determined for mice exposed to 2.5 minutes of anoxia as follows. Animals were exposed to 2.5 minutes of anoxia under pentobarbital anesthesia. Immediately after the exposure, animals were immersed into a liquid nitrogen. The frozen brains were removed by chiseling and extracted as described above. Lactate concentration was determined using the lactate dehydrogenase reaction.

## N=C(N)NCCS(=O)(=O)O [GES, guanidinoethane sulfate]
Gerbil brain
  intracellular pH of gerbil brain: 7.26 and 7.25±0.07 and 7.25
CA1 neurons; 7 days after 5 min bilateral carotid occlusion, sulfate
  neuroprotection of CA1 neurons (in words): significant nueroprotection on CA1 neurons; also recorded: Significantly higher neuronal density
CA1 neurons; GES control group (n=5), sham surgery
  neuronal density in CA1 region, no ischemia: 249 ± 9.4 /mm
CA1 neurons; GES ischemia group
  CA1 neuronal density, ischemia: 61.1±55.11 /mm
CA1 neurons; GES ischemia group (n=16), 5 min occlusion, 7 days, p<0.05
  neuronal density in CA1 region, ischemia: 61.1 ± 55.1 /mm
CA1 neurons; in vivo
  protective activity by CA1 neuronal density vs saline ischemia: four times higher
Mouse brain; 625 mg/kg i.p., two weeks, 625 mg/kg
  brain intracellular pH, pre-anoxia (in words): detectable shift in intracellular pH, to a more alkaline level; also recorded: clear alkali shift; also recorded: significantly increased brain intracellular pH (alkaline shift)
Mouse brain
  brain intracellular pH, post-anoxia (in words): alkali shift is maintained following 12 minutes of post anoxia; also recorded: remained higher, retaining the degree of alkaline shift
[1]
  arterial blood gas parameters including pH (in words): remained essentially unchanged
  arterial pCO2: 41.0 ± 5.49 mmHg
  arterial pH: 7.29 ± 0.03
  arterial pO2: 98.0 ± 5.8 mmHg
Anaerobic glycolysis; Table 4, n = 5, post 2.5 min anoxia
  Lactate: 0.50 ± 0.07 mM
Anaerobic glycolysis; among three groups
  lactate levels post 2.5 min anoxia (in words): essentially identical among the three groups
